Laboratory results: article PMC7997032, “Organic synthesis and anti-influenza A virus activity of cyclobakuchiols A, B, C, and D” (PLoS ONE, 2021)
Values joined by “and” are separate entries in the source; they are usually repeats but may differ in a detail not shown here. Equal entries are not always repeated. Where two headings read alike, the source gives them in different places.

How the values were obtained:
[1] = test system: A/PR/8/34 virus; experiment: RT-qPCR of viral mRNAs (NP, NS1, PA, PB1, PB2, M2) in infected MDCK cells; assay type: cell-based, influenza A H1N1 virus
[2] = test system: A/CA/7/09 viral HA; design: method as in PMID 26446794; settings: cited from earlier work
[3] = test system: Nrf2; experiment: Nrf2 reporter assay (dual luciferase system) in MDCK cells; assay type: cell-based, canine
[4] = test system: A/PR/8/34 virus; experiment: Immunofluorescence staining of viral NP in influenza A virus-infected MDCK cells; settings: for NP/DAPI (%) ave: average of 9 wells; for NP/DAPI (%): single well
[5] = test system: A/WSN/33 virus; experiment: as above; settings: for percentage of influenza A NP-positive cells relative to DMSO: 24 h, Fig 4D; for NP/DAPI (%) ave: WSN
Method: MDCK cells were seeded on a 96-well plate at 1 × 10^4 cells/well. […] Each mixture was added to the cells at 37°C in the presence of 5% CO2. […] After influenza A viral infection for 24 h, the cells were fixed with 4% paraformaldehyde in phosphate-buffered saline (PBS) for 30 min at 4°C and subsequently permeabilized by the addition of 0.3% Triton X-100 for 20 min at 25°C. A mouse primary antibody was used to detect the NP of A/PR/8/34 or A/WSN/33 viruses (FluA-NP 4F1; SouthernBiotech, AL, USA). Alexa Fluor488-conjugated goat anti-mouse IgG (H + L) antibody (Thermo Fisher Scientific) was used as the secondary antibody. Cell nuclei were then stained using diamidino-2-phenylindole (DAPI) (Thermo Fisher Scientific). Wells were photographed using a fluorescence microscope (BIOREVO BZ-X700; Keyence, Osaka, Japan). The proportion of influenza A NP-positive cells per DAPI-positive cells was calculated based on measurements recorded using BZ-X Analyzer software (Keyence).

[6] = test system: A/PR/8/34 viral HA; design: method as in PMID 26446794; settings: cited from earlier work
[7] = test system: recombinant A/PR/8/34 viral HA protein; design: method as in PMID 26446794; settings: cited from earlier work
[8] = test system: canine interferon-β (Ifn-β); experiment: RT-qPCR of Ifn-β mRNA in MDCK cells with or without A/PR/8/34 virus; assay type: cell-based; settings: for MDCK IFN-b mRNA, ave / MDCK IFN-b mRNA, individual replicates: 12.5uM, relative to virus - DMSO; for MDCK IFN-b mRNA, ave: ave of #1-3 exp; for MDCK IFN-b mRNA, individual replicates: replicates 1-3 of #1, #2, #3 exp
[9] = test system: A/WSN/33 virus; experiment: Viability of influenza A virus-infected MDCK cells by naphthol blue-black staining; assay type: cell-based, influenza A H1N1 virus; settings: A/WSN/33, MOI 10, 72 h, 0.4–25 μM
Method: MDCK cells were seeded on a 96-well plate (1 × 10^4 cells/well). 2–5 (0.4–25 μM) were mixed with A/PR/8/34, A/CA/7/09, or A/WSN/33 viruses in 10% FBS-supplemented growth medium at a multiplicity of infection (MOI) of ten. DMSO (0.004–1%) or 1 (0.4–25 μM) were used as negative or positive controls, respectively. […] After incubation, the cells were stained with naphthol blue–black, as previously described. Viable cells in each well were stained blue, whereas dead cells remained unstained.

[10] = test system: A/PR/8/34 virus; experiment: Influenza A viral growth assay (viral titer of culture media); assay type: cell-based, influenza A H1N1 virus; design: viral titer of culture media, individual replicate / viral titer of culture media, ave: unit not given here
[11] = test system: A/PR/8/34 virus; assay type: cell-based
[12] = test system: A/CA/7/09 viral NA; design: method as in PMID 26446794; settings: cited from earlier work
[13] = test system: NAD(P)H quinone oxidoreductase 1 (Nqo1); experiment: RT-qPCR of Nqo1 mRNA in MDCK cells with or without A/PR/8/34 virus; assay type: cell-based, canine; settings: for NQO1 Canis lupus mRNA, ave / NQO1 Canis lupus mRNA, individual replicates: 12.5uM, MDCK, relative to virus - DMSO; for NQO1 Canis lupus mRNA, ave: ave of #1-3 exp; for NQO1 Canis lupus mRNA, individual replicates: replicates 1-3 of #1, #2, #3 exp
[14] = test system: A/PR/8/34 viral NA; design: method as in PMID 26446794; settings: cited from earlier work
[15] = test system: A/WSN/33 virus; experiment: Influenza A viral growth assay (viral titer of culture media); assay type: cell-based, influenza A H1N1 virus; settings: for viral titer of conditioned media compared with DMSO: A/WSN/34 as printed, 12.5 μM
[16] = MDCK cells, PR8 virus, relative to DMSO (about 1), ave of #1-3 exp (9 values)
[17] = MDCK cells, PR8 virus, relative to DMSO, replicates 1-3 of #1, #2, #3 exp
[18] = 12.5 μM, 24h WB, average of 3 experiments
[19] = 12.5 μM, 24h WB, single experiment
[20] = 12.5 μM, 24 h post-infection, Fig 7C

C=C[C@@](C)(/C=C/c1ccc(O)cc1)CCC=C(C)C [(+)-(S)-bakuchiol, reference compound]
reduction in the level of NP mRNA compared with 4 and 5 ([1]; 12.5 μM, 24 h, Fig 6A): significantly stronger | reduction in the level of PB2 mRNA compared with 5 ([1]; 12.5 μM, 24 h, Fig 6E): significantly stronger | relative mRNA expression levels of viral genes (NP, NS1, PA, PB1, PB2, M2) compared with DMSO ([1]; 12.5 μM, MOI 0.1, 24 h): significantly decreased | PR8 NP gene expression qPCR, ave ([1]; MDCK PR8, NP mRNA, relative (DMSO about 1), average of #1-3 exp (n=9)): 0.01761 | PR8 NP gene expression qPCR, individual replicate ([1]; MDCK PR8, NP mRNA, relative (DMSO about 1), replicates of #1-3 exp): 0.006615 and 0.02549 and 0.02199 and 0.02377 and 0.03127 and 0.01502 and 0.01903 and 0.00944 and 0.005898 | PR8 NS1 gene expression qPCR, ave ([1]; MDCK PR8, NS1 mRNA, relative (DMSO about 1), average of #1-3 exp (n=9)): 0.01277 | PR8 NS1 gene expression qPCR, individual replicate ([1]; MDCK PR8, NS1 mRNA, relative (DMSO about 1), replicates of #1-3 exp): 0.005751 and 0.01688 and 0.01532 and 0.01756 and 0.02149 and 0.008029 and 0.01283 and 0.01159 and 0.005477 | PR8 PA gene expression qPCR, ave ([1]; MDCK PR8, PA mRNA, relative (DMSO about 1), average of #1-3 exp (n=9)): 0.01401 | PR8 PA gene expression qPCR, individual replicate ([1]; MDCK PR8, PA mRNA, relative (DMSO about 1), replicates of #1-3 exp): 0.007199 and 0.01835 and 0.01386 and 0.0158 and 0.019 and 0.01338 and 0.01452 and 0.01667 and 0.00733 | PR8 M2 gene expression qPCR, ave [1, 16]: 0.01399 | PR8 PB1 gene expression qPCR, ave [1, 16]: 0.009536 | PR8 PB2 gene expression qPCR, ave [1, 16]: 0.01448 | PR8 M2 gene expression qPCR, individual replicates [1, 17]: 0.006766 and 0.02094 and 0.01741 and 0.01624 and 0.02057 and 0.01274 and 0.01424 and 0.01232 and 0.004647 | PR8 PB1 gene expression qPCR, individual replicates [1, 17]: 0.005288 and 0.01134 and 0.00694 and 0.008199 and 0.02025 and 0.01044 and 0.005541 and 0.01144 and 0.006386 | PR8 PB2 gene expression qPCR, individual replicates [1, 17]: 0.00629 and 0.02178 and 0.01747 and 0.01955 and 0.0211 and 0.01165 and 0.01377 and 0.01287 and 0.005833 | inhibition of hemagglutination of chicken red blood cells [2]: did not inhibit | Nrf2 activation (reporter assay) in contrast to DMSO ([3]; 12.5 μM, 24 h, MDCK cells): induce Nrf2 activation | pNQO1-ARE-Luc NRF2 reporter assay, ave ([3]; 12.5uM, relative to DMSO trans+, ave of #1-3 exp): 1.302 | pNQO1-ARE-Luc NRF2 reporter assay, individual replicates ([3]; 12.5uM, relative to DMSO trans+, two values each of #1, #2, #3 exp): 1.091 and 1.274 and 1.491 and 1.4074 and 1.544 and 1.002 | percentage of influenza A NP-positive cells relative to DMSO ([4]; A/PR/8/34, 3.1 μM, 24 h, Fig 4B): significantly reduced | NP/DAPI (%) ave ([4]; A/PR/8/34, 3.13 uM): 3.314% | NP/DAPI (%) ave ([4]; A/PR/8/34, 6.25 uM): 1.176% | percentage of influenza A NP-positive cells compared with the 5-treatment ([4]; A/PR/8/34, 6.3 μM, 24 h, Fig 4B): significantly reduced | NP/DAPI (%) ave ([4]; A/PR/8/34, 12.5 uM): 0.5619% | NP/DAPI (%) ([4]; A/PR/8/34, 12.5 uM, listed as (+)-S-Bakuchiol): 1.274% and 0.625% and 0.6742% and 0.2454% and 0.2653% and 0.5128% and 0.5703% | NP/DAPI (%) ([4]; A/PR/8/34, 12.5 uM, listed as (+)-S-bakuchiol): 0.4184% | NP/DAPI (%) ave ([4]; A/PR/8/34, 25 uM): 0.5226% | percentage of influenza A NP-positive cells relative to DMSO ([4]; A/PR/8/34, 6.3–12.5 μM, 24 h, Fig 4B): significantly reduced | IC50 ([4]; Influenza A virus, PR/8, MDCK, read-out: half maximal (50%) inhibitory concentration (IC50)): 2.1 ± 1.2 µM | percentage of influenza A NP-positive cells relative to DMSO ([5]; A/WSN/33, 12.5 μM): significantly reduced | percentage of influenza A NP-positive cells relative to DMSO ([5]; A/WSN/33, 3.1–6.3 μM): did not significantly reduce | NP/DAPI (%) ave ([5]; 3.13uM, ave of 9 values (3 exp)): 23.4639% | NP/DAPI (%) ave ([5]; 6.25uM, ave of 9 values (3 exp)): 22.221% | NP/DAPI (%) ave ([5]; 12.5uM, ave of 9 values (3 exp)): 22.092% | NP/DAPI (%) ave ([5]; 25uM, ave of 9 values (3 exp)): 25.1439% | NP/DAPI (%) ave ([5]; ave summary, 3.13%): 23.4639% | NP/DAPI (%) ave ([5]; ave summary, 6.25%): 22.221% | NP/DAPI (%) ave ([5]; ave summary, 12.50%): 22.092% | NP/DAPI (%) ave ([5]; ave summary, 25%): 25.1439% | inhibition of hemagglutination of chicken red blood cells [6]: did not inhibit | inhibition of trypsin digestion of recombinant HA protein [7]: did not inhibit | virus-induced upregulation of Ifn-β mRNA [8]: significantly reduced | MDCK IFN-b mRNA, ave ([8]; virus +): 3.367 | MDCK IFN-b mRNA, individual replicates ([8]; virus +): 2.6311 and 8.162 and 4.8 and 5.795 and 3.073 and 1.349 and 1.382 and 0.9842 and 2.128 | MDCK IFN-b mRNA, ave ([8]; virus -): 1.794 | MDCK IFN-b mRNA, individual replicates ([8]; virus -): 0.2606 and 0.6947 and 2.008 and 8.353 and 0.6874 and 0.5651 and 1.697 and 0.7342 and 1.151 | naphthol blue-black staining of infected cells [9]: not stained | viral titer of culture media, ave ([10]; A/PR/8/34 (PR8), 12.5uM, 12h, average of #1-3 exp (n=9)): 23333.3 | viral titer of conditioned media compared with DMSO ([10]; A/PR/8/34, 12.5 μM, 12–72 h): significantly reduced | expression of NP and NS1 proteins compared with DMSO (western blot) ([11]; 12.5 μM, 8, 12 or 24 h post-infection): reduced | NP/b-actin ave [11, 18]: 0.4577 | NS1/b-actin ave [11, 18]: 0.476 | NP mean (western blot signal intensity, ImageJ) [11, 19]: 41.483 and 67.678 and 82.727 | NS1/b-actin [11, 19]: 0.411 and 0.4433 and 0.5737 | NS1 mean (western blot signal intensity, ImageJ) [11, 19]: 69.425 and 77.937 and 55.734 | expression level of NP protein compared with the 4 or 5 treatment groups [11, 20]: significantly reduced | expression levels of NP or NS1 proteins from signal intensities compared with DMSO [11, 20]: significantly reduced | inhibition of viral NA activity [12]: did not inhibit | relative mRNA level of Nqo1 compared with DMSO [13]: significantly upregulated | NQO1 Canis lupus mRNA, ave ([13]; virus + (PR8)): 2.213 | NQO1 Canis lupus mRNA, individual replicates ([13]; virus + (PR8)): 2.486 and 2.782 and 2.118 and 2.457 and 1.645 and 1.778 and 1.772 and 2.442 and 2.434 | NQO1 Canis lupus mRNA, ave ([13]; virus -): 1.91 | NQO1 Canis lupus mRNA, individual replicates ([13]; virus -): 1.8342 and 2.199 and 2.0999 and 1.939 and 1.851 and 1.6659 and 2.003 and 1.832 and 1.767 | relative mRNA level of Nqo1 compared with DMSO ([13]; without A/PR/8/34 virus, 12.5 μM, 24 h): significantly upregulated | inhibition of viral NA activity [14]: did not inhibit | viral titer of culture media, ave ([15]; A/WSN/33 (WSN), 12.5uM, 12h, average of #1-3 exp (n=9)): 15811.1 | viral titer of conditioned media compared with DMSO ([15]; 48–72 h): not reduced | viral titer of conditioned media compared with DMSO ([15]; 24 h): significantly reduced
